# Reference: the supplement of paper PMC10307832
# Tests used:
# Assay in all cases: relative viability (nuclei count vs DMSO), 5 days (fraction); higher = more cells survive
# Calu-6 = system: Calu-6
# Summary of the method: (§1)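 Nuclei were stained with Hoechst during a one-step fixation (final 0.05% Triton X-100, 1% formaldehyde, 1 ug/ml Hoechst) carried out 5 days after dosing, then counted on 4× images. The cells, lung cancer lines in 1536-well plates, had been dosed by pin tool the day after seeding with one drug alone or a fixed anchor-drug dose plus five library-drug doses (not always all listed) in √10 steps. Relative viability is the nuclei count in treated wells divided by that in vehicle wells, and each value is the median of duplicate plates.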
# COR-L 105 = system: COR-L 105
# Summary of the method: as §1
# LK-2 = system: LK-2
# Summary of the method: as §1
# A549 = system: A549
# Summary of the method: as §1
# EBC-1 = system: EBC-1
# Summary of the method: as §1
# IA-LM = system: IA-LM
# Summary of the method: as §1
# NCI-H1355 = system: NCI-H1355
# Summary of the method: as §1
# NCI-H1299 = system: NCI-H1299
# Summary of the method: as §1
# NCI-H520 = system: NCI-H520
# Summary of the method: as §1
# NCI-H1703 = system: NCI-H1703
# Summary of the method: as §1
# NCI-H1666 = system: NCI-H1666
# Summary of the method: as §1
smiles,measurement,setting,value
Nc1ccn([C@@H]2O[C@H](CO)[C@@H](O)[C@@H]2O)c(=O)n1 [Cytarabine] + CC1(C)CCC(c2ccc(Cl)cc2)=C(CN2CCN(c3ccc(C(=O)NS(=O)(=O)c4ccc(N[C@H](CCN5CCOCC5)CSc5ccccc5)c(S(=O)(=O)C(F)(F)F)c4)cc3)CC2)C1 [Navitoclax] (partner 0.5 µM),relative viability,Calu-6; first compound 0.005 µM,0.831
same,relative viability,Calu-6; first compound 0.01581 µM,0.796
same,relative viability,Calu-6; first compound 0.05 µM,0.9
same,relative viability,Calu-6; first compound 0.1581 µM,0.338
same,relative viability,Calu-6; first compound 0.5 µM,0.22
same,relative viability,COR-L 105; first compound 0.005 µM,0.699
same,relative viability,COR-L 105; first compound 0.01581 µM,0.795
same,relative viability,COR-L 105; first compound 0.05 µM,0.588
same,relative viability,COR-L 105; first compound 0.1581 µM,0.435
same,relative viability,COR-L 105; first compound 0.5 µM,0.34
same,relative viability,LK-2; first compound 0.005 µM,0.527
same,relative viability,LK-2; first compound 0.01581 µM,0.425
same,relative viability,LK-2; first compound 0.05 µM,0.316
same,relative viability,LK-2; first compound 0.1581 µM,0.191
same,relative viability,LK-2; first compound 0.5 µM,0.194
same,relative viability,A549; first compound 0.005 µM,0.969
same,relative viability,A549; first compound 0.01581 µM,0.588
same,relative viability,A549; first compound 0.05 µM,0.476
same,relative viability,A549; first compound 0.1581 µM,0.0384
same,relative viability,A549; first compound 0.5 µM,0.0234
same,relative viability,EBC-1; first compound 0.005 µM,0.304
same,relative viability,EBC-1; first compound 0.01581 µM,0.281
same,relative viability,EBC-1; first compound 0.05 µM,0.233
same,relative viability,EBC-1; first compound 0.1581 µM,0.222
same,relative viability,EBC-1; first compound 0.5 µM,0.165
same,relative viability,IA-LM; first compound 0.005 µM,0.917
same,relative viability,IA-LM; first compound 0.01581 µM,0.603
same,relative viability,IA-LM; first compound 0.05 µM,0.64
same,relative viability,IA-LM; first compound 0.1581 µM,0.279
same,relative viability,IA-LM; first compound 0.5 µM,0.151
same,relative viability,NCI-H1355; first compound 0.005 µM,0.897
same,relative viability,NCI-H1355; first compound 0.01581 µM,0.811
same,relative viability,NCI-H1355; first compound 0.05 µM,0.819
same,relative viability,NCI-H1355; first compound 0.1581 µM,0.325
same,relative viability,NCI-H1355; first compound 0.5 µM,0.203
same,relative viability,NCI-H1299; first compound 0.005 µM,1.09
same,relative viability,NCI-H1299; first compound 0.01581 µM,1.13
same,relative viability,NCI-H1299; first compound 0.05 µM,1.08
same,relative viability,NCI-H1299; first compound 0.1581 µM,1.02
same,relative viability,NCI-H1299; first compound 0.5 µM,0.989
same,relative viability,NCI-H520; first compound 0.005 µM,0.955
same,relative viability,NCI-H520; first compound 0.01581 µM,0.902
same,relative viability,NCI-H520; first compound 0.05 µM,1.14
same,relative viability,NCI-H520; first compound 0.1581 µM,0.904
same,relative viability,NCI-H520; first compound 0.5 µM,0.781
same,relative viability,NCI-H1703; first compound 0.005 µM,0.717
same,relative viability,NCI-H1703; first compound 0.01581 µM,0.365
same,relative viability,NCI-H1703; first compound 0.05 µM,0.244
same,relative viability,NCI-H1703; first compound 0.1581 µM,0.135
same,relative viability,NCI-H1703; first compound 0.5 µM,0.105
same,relative viability,NCI-H1666; first compound 0.005 µM,0.755
same,relative viability,NCI-H1666; first compound 0.01581 µM,0.796
same,relative viability,NCI-H1666; first compound 0.05 µM,0.718
same,relative viability,NCI-H1666; first compound 0.1581 µM,0.41
same,relative viability,NCI-H1666; first compound 0.5 µM,0.355
COc1cc2nccc(Oc3ccc(NC(=O)Nc4cc(C)on4)c(Cl)c3)c2cc1OC [Tivozanib] + CS(=O)(=O)CCNCc1ccc(-c2ccc3ncnc(Nc4ccc(OCc5cccc(F)c5)c(Cl)c4)c3c2)o1 [Lapatinib] (partner 2 µM),relative viability,Calu-6; first compound 0.005 µM,1.01
same,relative viability,Calu-6; first compound 0.01581 µM,1.08
same,relative viability,Calu-6; first compound 0.05 µM,1.07
same,relative viability,Calu-6; first compound 0.1581 µM,1.13
same,relative viability,Calu-6; first compound 0.5 µM,1.14
same,relative viability,COR-L 105; first compound 0.01581 µM,0.317
same,relative viability,COR-L 105; first compound 0.05 µM,0.368
same,relative viability,COR-L 105; first compound 0.1581 µM,0.322
same,relative viability,COR-L 105; first compound 0.5 µM,0.339
same,relative viability,LK-2; first compound 0.005 µM,0.951
same,relative viability,LK-2; first compound 0.01581 µM,0.842
same,relative viability,LK-2; first compound 0.05 µM,0.918
same,relative viability,LK-2; first compound 0.1581 µM,0.742
same,relative viability,LK-2; first compound 0.5 µM,0.683
same,relative viability,A549; first compound 0.005 µM,1.09
same,relative viability,A549; first compound 0.01581 µM,0.987
same,relative viability,A549; first compound 0.05 µM,0.944
same,relative viability,A549; first compound 0.1581 µM,1.03
same,relative viability,A549; first compound 0.5 µM,0.913
same,relative viability,EBC-1; first compound 0.005 µM,0.231
same,relative viability,EBC-1; first compound 0.01581 µM,0.216
same,relative viability,EBC-1; first compound 0.05 µM,0.172
same,relative viability,EBC-1; first compound 0.1581 µM,0.209
same,relative viability,EBC-1; first compound 0.5 µM,0.204
same,relative viability,IA-LM; first compound 0.01581 µM,0.564
same,relative viability,IA-LM; first compound 0.05 µM,0.771
same,relative viability,IA-LM; first compound 0.1581 µM,0.582
same,relative viability,IA-LM; first compound 0.5 µM,0.56
same,relative viability,NCI-H1355; first compound 0.005 µM,0.894
same,relative viability,NCI-H1355; first compound 0.01581 µM,0.941
same,relative viability,NCI-H1355; first compound 0.05 µM,1
same,relative viability,NCI-H1355; first compound 0.5 µM,0.92
same,relative viability,NCI-H1299; first compound 0.005 µM,0.921
same,relative viability,NCI-H1299; first compound 0.01581 µM,1.03
same,relative viability,NCI-H1299; first compound 0.05 µM,0.933
same,relative viability,NCI-H1299; first compound 0.1581 µM,0.936
same,relative viability,NCI-H1299; first compound 0.5 µM,0.917
same,relative viability,NCI-H520; first compound 0.005 µM,0.763
same,relative viability,NCI-H520; first compound 0.01581 µM,0.912
same,relative viability,NCI-H520; first compound 0.05 µM,0.87
same,relative viability,NCI-H520; first compound 0.1581 µM,0.82
same,relative viability,NCI-H520; first compound 0.5 µM,0.757
same,relative viability,NCI-H1703; first compound 0.005 µM,0.44
same,relative viability,NCI-H1703; first compound 0.01581 µM,0.255
same,relative viability,NCI-H1703; first compound 0.05 µM,0.271
same,relative viability,NCI-H1703; first compound 0.1581 µM,0.305
same,relative viability,NCI-H1703; first compound 0.5 µM,0.259
same,relative viability,NCI-H1666; first compound 0.005 µM,0.561
same,relative viability,NCI-H1666; first compound 0.01581 µM,0.621
same,relative viability,NCI-H1666; first compound 0.05 µM,0.641
same,relative viability,NCI-H1666; first compound 0.1581 µM,0.607
same,relative viability,NCI-H1666; first compound 0.5 µM,0.84
